Patent US6444684B1 (priority 1993, dated 2002)
Where two headings read alike, the source gives them in different places.

What was measured:
[1] = system: 3LL = Lewis Lung Carcinoma Cells; test: cells; details: Mus musculus
[2] = system: H/1.2 = ras^H Transformed NRKE Cells; test: cells; details: Rattus norvegicus, read-out: LC50 H/1.2
[3] = system: K/1 = ras^K Transformed NRKE Cells; test: cells; details: Rattus norvegicus, read-out: LC50 K/1
[4] = system: H/1.2 = ras^H Transformed NRKE Cells; details: for Differential Index H/1.2: H/1.2 = ras^H transformed NRKE cells, compared with normal NRKE cells
[5] = system: N/4.2-NRKE transformed by the human ras^N gene; details: for Differential Index N/4.2: N/4.2 = ras^N transformed NRK cells, compared with normal NRKE cells
[6] = system: 3LL = Lewis Lung Carcinoma Cells; details: 3LL = Lewis lung carcinoma cells, compared with normal NRKE cells
[7] = system: K/1 = ras^K Transformed NRKE Cells; details: for Differential Index K/1: K/1 = ras^K transformed NRKE cells, compared with normal NRKE cells
[8] = system: N/4.2-NRKE transformed by the human ras^N gene; test: cells; details: N42, read-out: LC50 N/4.2
[9] = in vitro; details: rat, LC50 NRKE
[10] = system: Breast Cancer cell lines; test: NCI in vitro anticancer screen (SRB), breast cancer subpanel; details: 48 hours exposure; average percent growth over the cell lines
[11] = system: CNS Cancer cell lines; test: NCI in vitro anticancer screen (SRB), CNS cancer subpanel; details: 48 hours exposure; average percent growth over the cell lines
Experimental: (§1) Compounds chosen for the program are initially tested in an in vitro anticancer screen. A total of fifty-five human tumor cell lines, derived from nine cancer types (lung, colon, melanoma, renal, ovarian, brain, prostate, breast and leukemia), are used in this screen. The tumor cells are inoculated over a series of standard 96-well microtiter plates on day 0. These cells are then preincubated on the microtiter plates for 24 hours. The test compounds are added to the wells in five 10-fold dilutions starting from the highest soluble concentration. Each compound is tested against every cell line in the panel. The compounds are incubated for 48 hours with the tumor cell lines. At the termination of the assay, the cells are fixed in situ, washed, and dried. Sulforhodamine B (SRB), a pink anionic dye that binds to the basic amino acids of trichloroacetic acid-fixed cells, is added. The cells are washed again, and the remaining dye is a function of the adherent cell mass. The bound stain is solubilized and measured spectrophotometrically. The data are entered from automatic reading devices into a computer for subsequent storage and analysis.
(§2) The measured effect of each test compound on the cell lines is calculated according to one or the other of the following two expressions:
(§3) If (Mean ODtest−Mean ODtzero)□0, then PG=100×(Mean ODtest−Mean ODtzero)/(Mean ODctrl−Mean ODtzero);
(§4) If (Mean ODtest−Mean ODtzero)<0, then PG=100×(Mean ODtest−Mean ODtzero)/Meantzero;
(§5) First, a data sheet is provided which lists, for each cell line, the Mean ODtzero, the Mean ODctrl, the Mean ODtest for each of the five concentrations, the calculated PGs for each concentration, and the response parameters G150, TGI, and LC50.
(§6) Third, mean graphs at each of the principal response parameters (GI50, TGI, and LC50) are provided. […] Since the bar scale is logarithmic, a bar two units to the right implies the compound achieved the response parameter (e.g., GI50) for the cell line at a concentration 1/100 the mean concentration required over all cell lines, and thus the cell line is unusually sensitive to that compound. Bars extending to the left correspondingly imply sensitivity less than the mean. Thus, the mean graphs facilitate visual scanning of data for potential patterns of selectivity for particular cell lines or for particular subpanels with respect to a selected response parameter.

[12] = system: Leukemia cell lines; test: NCI in vitro anticancer screen (SRB), leukemia subpanel; details: for Activity (Average PG for highest dose tested) Leukemia: 48 hours exposure, average percent growth over the cell lines
Experimental: as §1, §2, §3, §4, §5, §6

[13] = system: Renal Cancer cell lines; test: NCI in vitro anticancer screen (SRB), renal cancer subpanel; details: 48 hours exposure; average percent growth over the cell lines
Experimental: as §1, §2, §3, §4, §5, §6

[14] = system: Non-Small Cell Lung Cancer cell lines; test: NCI in vitro anticancer screen (SRB), non-small cell lung cancer subpanel; details: 48 hours exposure; average percent growth over the cell lines
Experimental: as §1, §2, §3, §4, §5, §6

[15] = system: Melanoma cell lines; test: NCI in vitro anticancer screen (SRB), melanoma subpanel; details: 48 hours exposure; average percent growth over the cell lines
Experimental: as §1, §2, §3, §4, §5, §6

[16] = system: Ovarian Cancer cell lines; test: NCI in vitro anticancer screen (SRB), ovarian cancer subpanel; details: 48 hours exposure; average percent growth over the cell lines
Experimental: as §1, §2, §3, §4

[17] = system: Prostate Cancer cell lines; test: NCI in vitro anticancer screen (SRB), prostate cancer subpanel; details: 48 hours exposure; average percent growth over the cell lines
Experimental: as §1, §2, §3, §4

[18] = system: Colon Cancer cell lines; test: NCI in vitro anticancer screen (SRB), colon cancer subpanel; details: 48 hours exposure; average percent growth over the cell lines
Experimental: as §1, §2, §3, §4

[19] = system: K/1-NRKE tumor (ras^K-transformed NRKE cells)
[20] = read-out: LC50 3LL, Table XV (Example 51)

Compound | CC50 [1, 20] [µM] | CC50 [2] [µM] | CC50 [3] [µM] | Differential Index H/1.2 [4] | Differential Index N/4.2 [5] | Differential Index 3LL [6] | Differential Index K/1 [7] | CC50 [8] [µM] | CC50 at 5 days [9] [µM] | Activity (Average PG for highest dose tested) Breast Cancer [10] | Activity (Average PG for highest dose tested) CNS Cancer [11] | Activity (Average PG for highest dose tested) Leukemia [12] | Activity (Average PG for highest dose tested) Renal Cancer [13] | Activity (Average PG for highest dose tested) Non-Small Cell Lung Cancer [14] | Activity (Average PG for highest dose tested) Melanoma [15] | Activity (Average PG for highest dose tested) Ovarian Cancer [16] | Activity (Average PG for highest dose tested) Prostate Cancer [17] | Activity (Average PG for highest dose tested) Colon Cancer [18] | also measured
CC(=O)NC1=CC(=O)c2ccc(C=O)nc2C1=O [Compound 23, 7-ACETAMIDO-2-FORMYLQUINOLINE-5,8-DIONE] | 3.7 | 5.5 | 12.5 | 0.9 | 0.7 | 1.35 | 0.4 | 7 | – | – | – | – | – | – | – | – | – | – | CC50 ([1]; 120 h, read-out: LC50 3LL, Table VII, concentration giving 50% cell kill, 5 days exposure): 1.2 µM; CC50 ([2]; 120 h): 2.5 µM; CC50 ([3]; 120 h): 2.6 µM
O=Cc1ccc2c(n1)C(=O)C(NC(=O)CCl)=CC2=O [Compound 24, 7-CHLOROACETAMIDO-2-FORMYLQUINOLINE-5,8-DIONE] | 2.1 | 3.4 | 5.8 | 1.06 | 1.125 | 1.7 | 0.6 | 3.2 | 3.6 | – | – | – | – | – | – | – | – | – | –
CCCCCCCCOC(=O)c1cc2c([nH]c3ccccc32)c(-c2ccc3c(n2)C(=O)C(NC(C)=O)=CC3=O)n1 [Compound 21] | – | – | – | – | – | – | – | – | – | +62.9% | +59.3% | +20.3% | +67.5% | +13.0% | +58.6% | +47.0% | +69.5% | +62.3% | CC50 [4]: 7.6 µM; CC50 [5]: 9 µM; Number Dead Number Treated ([19]; 150 Mg/Kg/Day IP once daily for 8 days): 0/7; Number Dead Number Treated ([19]; 300 Mg/Kg/Day IP once daily for 8 days): 0/7; toxicity in tumor-bearing nude mice (in words) ([19]; even at doses up to 300 mg/kg/day): little or no toxicity; tumor growth inhibition in vivo (in words) ([19]; summary of Table X): excellent tumor growth inhibition; CC50 [7]: 0.25 µM; selective toxicity against ras^K oncogene bearing tumor cells as compared to the normal, non-transformed cells ([7]; LC50 NRKE divided by LC50 K/1): 132 fold
CCCC(=O)NC1=CC(=O)c2ccc(C=O)nc2C1=O [Compound 26, 7-BUTYRAMIDO-2-FORMYLQUINOLINE-5,8-DIONE] | 2.5 | 3.3 | > 3.3 | 0.9 | <0.9 | 1.2 | <0.9 | > 3.3 | 3 | −35.0% | −61.0% | −10.8% | −93.0% | −50.9% | −79.0% | −63.2% | −81.5% | −17.9% | –
CCCC(=O)NC1=CC(=O)c2ccc(C)nc2C1=O [Compound 30, 7-BUTYRAMIDO-2-METHYLQUINOLINE-5,8-DIONE] | 2.2 | 2.7 | > 3.3 | 0.7 | <0.6 | 0.9 | <0.6 | > 3.3 | 2 | −62.7% | −93.8% | −21.7% | −92.0% | −71.1% | −85.1% | −86.7% | −79.0% | −66.6% | selectivity for leukemia (in words) ([12]; repeat cancer screen): showed selectivity for leukemia
Cc1ccc2c(n1)C(=O)C(NC(=O)CCl)=CC2=O [Compound 28, 7-CHLOROACETAMIDO-2-METHYLQUINOLINE-5,8-DIONE] | 2.3 | 2.8 | 6.6 | 1.1 | 0.9 | 1.4 | 0.48 | 3.4 | 3.2 | – | – | – | – | – | – | – | – | – | –
